Patent US20070167488A1, “Novel therapeutic use” (Leo Pharma A/S, priority 2003, published 2007)
Marks after values point to notes of the source that are not given here.

What was measured:
[1] = system: EAE induced in SJL/J mice with a peptide from myelin proteolipid protein (PLP139-153); experiment: EAE model in SJL/J mice immunized with PLP139-153 peptide; type: in vivo, mouse
[2] = system: EAE in C57BL/6 mice immunized with a peptide from myelin oligodendrocyte glycoprotein (MOG35-55); experiment: Second EAE model: C57BL/6JBom mice immunized with MOG35-55 peptide; type: in vivo, mouse; conditions: MOG35-55, day 0-21, dexamethasone 1 mg/kg p.o.
IL-2 = IL-2 production by spleen cells of immunized, dosed mice after in vitro restimulation with PLP139-153; type: cell-based, mouse; conditions: example 6; 50 mg/kg i.p. daily for 10 days, vs vehicle treated group
IL-6 = IL-6 production by spleen cells of immunized, dosed mice after in vitro restimulation with PLP139-153; type: cell-based, mouse; conditions: example 6; 50 mg/kg i.p. daily for 10 days, vs vehicle treated group
IFN-γ = IFN-γ production by spleen cells of immunized, dosed mice after in vitro restimulation with PLP139-153; type: cell-based, mouse; conditions: example 6; 50 mg/kg i.p. daily for 10 days, vs vehicle treated group
IL-17 = IL-17 production by spleen cells of immunized, dosed mice after in vitro restimulation with PLP139-153; type: cell-based, mouse; conditions: example 6; 50 mg/kg i.p. daily for 10 days, vs vehicle treated group
JAK-2 kinase = JAK-2 kinase (Mus musculus, UniProt Q62120); conditions: J. J. Bright et al., J. Immunol. 162, 1999; cited from earlier work
[3] = system: lymphocyte adhesion to inflamed vessels; conditions: G. Constantin et al., J. Immunol. 162, 1999; cited from earlier work
[4] = Table 4, 50 mg/kg daily, treatment as in example 4
[5] = Exp. 1, terminated day 21, dexamethasone 0.5 mg/kg from day 0
[6] = Exp. 2, terminated day 21, dexamethasone 1 mg/kg from day 1
[7] = Exp. 3, terminated day 28, dexamethasone 1 mg/kg from day 1
[8] = Table 3, experiment with compound 57 (vehicle AUC 28.6), day 0-21, dexamethasone 1 mg/kg p.o.
[9] = Table 3, experiment with compound 110 (vehicle AUC 42.75), day 0-21, dexamethasone 1 mg/kg p.o.
[10] = Exp. 2, terminated day 21, 5 mg/kg i.p. daily
[11] = Exp. 2, terminated day 21, 10 mg/kg i.p. daily

Sequence of JAK-2 kinase (Q62120 whole entry): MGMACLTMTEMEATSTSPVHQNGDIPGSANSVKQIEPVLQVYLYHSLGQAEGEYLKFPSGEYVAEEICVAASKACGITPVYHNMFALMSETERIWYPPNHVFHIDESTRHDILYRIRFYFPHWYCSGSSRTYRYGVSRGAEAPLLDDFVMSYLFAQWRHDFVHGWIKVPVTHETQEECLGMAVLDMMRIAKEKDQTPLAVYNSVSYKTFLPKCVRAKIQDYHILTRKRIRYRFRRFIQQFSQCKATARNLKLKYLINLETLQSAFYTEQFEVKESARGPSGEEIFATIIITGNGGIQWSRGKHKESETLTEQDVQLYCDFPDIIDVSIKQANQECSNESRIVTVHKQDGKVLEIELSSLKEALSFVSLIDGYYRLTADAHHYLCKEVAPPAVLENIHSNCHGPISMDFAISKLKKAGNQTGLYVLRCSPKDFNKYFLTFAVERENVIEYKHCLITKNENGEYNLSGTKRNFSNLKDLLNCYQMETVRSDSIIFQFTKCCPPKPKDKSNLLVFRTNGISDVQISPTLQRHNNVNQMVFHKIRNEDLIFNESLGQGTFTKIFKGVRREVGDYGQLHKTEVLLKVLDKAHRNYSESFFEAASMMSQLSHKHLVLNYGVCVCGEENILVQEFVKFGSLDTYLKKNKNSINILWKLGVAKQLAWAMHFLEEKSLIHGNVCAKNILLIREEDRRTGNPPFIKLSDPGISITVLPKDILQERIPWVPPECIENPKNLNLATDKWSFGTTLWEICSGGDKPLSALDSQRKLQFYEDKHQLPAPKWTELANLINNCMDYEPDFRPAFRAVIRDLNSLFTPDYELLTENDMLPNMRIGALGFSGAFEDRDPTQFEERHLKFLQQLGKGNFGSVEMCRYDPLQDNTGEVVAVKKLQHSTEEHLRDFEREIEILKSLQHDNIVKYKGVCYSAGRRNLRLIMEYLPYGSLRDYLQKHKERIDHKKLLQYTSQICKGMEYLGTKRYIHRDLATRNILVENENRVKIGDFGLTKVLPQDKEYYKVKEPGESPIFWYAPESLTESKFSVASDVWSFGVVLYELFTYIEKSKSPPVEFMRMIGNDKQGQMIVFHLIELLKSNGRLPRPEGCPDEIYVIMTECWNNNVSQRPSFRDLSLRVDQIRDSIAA

**Q.** Which “Inhibition (%) of EAE (area-under-curve of the disease score)” value (from here on “Inhibition (%) of EAE”) ([1]; Table 7, 50 mg/kg p.o., suspension vehicle adjusted to pH 4 by addition of aqueous HCl) does the source give for `COc1ccc(OC)c(/C=C2/C(=O)Nc3ccc(F)cc32)c1` [Compound 211, 3-(2,5-dimethoxy-benzylidene)-5-fluoro-1,3-dihydro-indol-2-one] here?
**A.** 37** %

**Q.** With `COc1cccc(C=C2C(=O)Nc3ccccc32)c1` (racemic) [Compound 153, 3-(3-methoxy-benzylidene)-1,3-dihydro-indol-2-one] as the compound, how does the “Inhibition (%) of EAE” value [1, 4] read?
**A.** 38%

**Q.** Which results are given for `C[C@@H]1C[C@H]2[C@@H]3CCC4=CC(=O)C=C[C@]4(C)[C@@]3(F)[C@@H](O)C[C@]2(C)[C@@]1(O)C(=O)CO` [Dexamethasone, dexamethasone, reference compound]?
**A.** AUC (mean) of the disease score [2]: 0.00; inhibition (%) [2]: 100%; AUC (mean) of the disease score [1, 5]: 4.3; inhibition (%) [1, 5]: 75%; AUC (mean) of the disease score [1, 6]: 11.8; inhibition (%) [1, 6]: 54%; AUC (mean) of the disease score [1, 7]: 0.8; inhibition (%) [1, 7]: 98%; AUC (mean) of the disease score [1, 8]: 13.15; inhibition (%) [1, 8]: 54%; AUC (mean) of the disease score [1, 9]: 8.85; inhibition (%) [1, 9]: 79%

**Q.** What does the source list for `CO[C@@H]1[C@H](OC(=O)NC(=O)CCl)CC[C@]2(CO2)[C@H]1[C@@]1(C)O[C@@H]1CC=C(C)C` [Compound B, reference compound]?
**A.** AUC (mean) of the disease score [1, 10]: 19.0; inhibition (%) [1, 10]: 25%; AUC (mean) of the disease score [1, 11]: 19.3; inhibition (%) [1, 11]: 24%; Inhibition of EAE compared with the suspension vehicle group (in words) ([1]; SJL/J mice, PLP139-153, doses as in tables 1 and 3): no significant inhibition

**Q.** With `COc1ccc(CN(C)C)cc1/C=C1/C(=O)Nc2ccccc21` [Compound 32, 3-(5-dimethylaminomethyl-2-methoxy-benzylidene)-1,3-dihydro-indol-2-one] as the compound, how does the “Inhibition (%) of EAE” value ([1]; Table 7, 50 mg/kg p.o., suspension vehicle) read?
**A.** 40%

**Q.** For `Cc1cc(C)c(C=C2C(=O)Nc3ccccc32)[nH]1` [3-(3,5-dimethyl-1H-pyrrol-2-ylmethylene)-1,3-dihydro-indol-2-one], which “Level of antigen-specific IL-2 production of spleen cells” value (IL-2) is on record?
**A.** inhibit expression

**Q.** And the “Level of antigen-specific IL-6 production of spleen cells” value (IL-6)?
**A.** inhibit expression

**Q.** What about the “Level of antigen-specific IFN-γ production of spleen cells” value (IFN-γ) of the same compound?
**A.** inhibit expression

**Q.** And the “Level of antigen-specific IL-17 production of spleen cells” value (IL-17)?
**A.** inhibit expression

**Q.** Which results are given for `N#C/C(=C\c1ccc(O)c(O)c1)C(=O)NCc1ccccc1` [tyrphostin B42]?
**A.** Inhibition of IL-12 induced tyrosine phosphorylation and activation of JAK-2 kinase (JAK-2 kinase): inhibit; Inhibition of lymphocyte adhesion to inflamed vessels [3]: effective inhibitor

**Q.** For `CCN(CC)CCNC(=O)c1c(C)[nH]c(/C=C2\C(=O)Nc3ccc(F)cc32)c1C` [Compound 228, 5-(5-fluoro-2-oxo-1,2-dihydro-indol-3-ylidenemethyl)-2,4-dimethyl-1H-pyrrole-3-carboxylic acid (2-diethylamino-ethyl)-amide], which “Inhibition (%) of EAE” value [1, 4] is on record?
**A.** 43%
